Test results taken from ChEMBL document CHEMBL5724914, “Linking interpersonal differences in gut microbiota composition and drug biotransformation activity” (2024).

Conditions: human gut metagenome, 24 h, 2 µM
Note: call rule not given here.

Structure (SMILES) | Bacterial Biotransformation
CC(O)(CS(=O)(=O)c1ccc(F)cc1)C(=O)Nc1ccc(C#N)c(C(F)(F)F)c1 (stereo not given) [BICALUTAMIDE] | Compound NOT metabolized
CC(C)c1nc(CN(C)C(=O)N[C@H](C(=O)N[C@@H](Cc2ccccc2)C[C@H](O)[C@H](Cc2ccccc2)NC(=O)OCc2cncs2)C(C)C)cs1 [RITONAVIR] | Compound metabolized

Test: (§1) The drug is tested on Z-001 corresponding to mouse gut metagenome with ENA study accession number: PRJEB37062 and ENA sample accession number: ERS12561801 for biotransformation under anaerobic condition. The drug concentrations were measured over 9 timepoints collected between 0 and 24 hours of incubation by liquid-chromatography-coupled mass spectrometry (LC–MS)
Conditions: 2 µM

Structure (SMILES) | Bacterial Biotransformation
CC(O)(CS(=O)(=O)c1ccc(F)cc1)C(=O)Nc1ccc(C#N)c(C(F)(F)F)c1 (stereo not given) [BICALUTAMIDE] | Compound NOT metabolized
CC(C)c1nc(CN(C)C(=O)N[C@H](C(=O)N[C@@H](Cc2ccccc2)C[C@H](O)[C@H](Cc2ccccc2)NC(=O)OCc2cncs2)C(C)C)cs1 [RITONAVIR] | Compound NOT metabolized

Test: as §1, with “Z-030” for “Z-001”, “ERS12561829” for “ERS12561801”
Conditions: 2 µM

Structure (SMILES) | Bacterial Biotransformation
CC(O)(CS(=O)(=O)c1ccc(F)cc1)C(=O)Nc1ccc(C#N)c(C(F)(F)F)c1 (stereo not given) [BICALUTAMIDE] | Compound NOT metabolized
CC(C)c1nc(CN(C)C(=O)N[C@H](C(=O)N[C@@H](Cc2ccccc2)C[C@H](O)[C@H](Cc2ccccc2)NC(=O)OCc2cncs2)C(C)C)cs1 [RITONAVIR] | Compound NOT metabolized

Test: as §1, with “Z-004” for “Z-001”, “to” for “to mouse gut”, “ERS12561804” for “ERS12561801”
Conditions: 2 µM

Structure (SMILES) | Bacterial Biotransformation
CC(O)(CS(=O)(=O)c1ccc(F)cc1)C(=O)Nc1ccc(C#N)c(C(F)(F)F)c1 (stereo not given) [BICALUTAMIDE] | Compound NOT metabolized
CC(C)c1nc(CN(C)C(=O)N[C@H](C(=O)N[C@@H](Cc2ccccc2)C[C@H](O)[C@H](Cc2ccccc2)NC(=O)OCc2cncs2)C(C)C)cs1 [RITONAVIR] | Compound NOT metabolized

Test: as §1, with “Z-024” for “Z-001”, “pig” for “mouse”, “ERS12561823” for “ERS12561801”
Conditions: 2 µM

Structure (SMILES) | Bacterial Biotransformation
CC(O)(CS(=O)(=O)c1ccc(F)cc1)C(=O)Nc1ccc(C#N)c(C(F)(F)F)c1 (stereo not given) [BICALUTAMIDE] | Compound NOT metabolized
CC(C)c1nc(CN(C)C(=O)N[C@H](C(=O)N[C@@H](Cc2ccccc2)C[C@H](O)[C@H](Cc2ccccc2)NC(=O)OCc2cncs2)C(C)C)cs1 [RITONAVIR] | Compound NOT metabolized

Test: as §1, with “Z-028” for “Z-001”, “ERS12561827” for “ERS12561801”
Conditions: 2 µM

Structure (SMILES) | Bacterial Biotransformation
CC(O)(CS(=O)(=O)c1ccc(F)cc1)C(=O)Nc1ccc(C#N)c(C(F)(F)F)c1 (stereo not given) [BICALUTAMIDE] | Compound NOT metabolized
CC(C)c1nc(CN(C)C(=O)N[C@H](C(=O)N[C@@H](Cc2ccccc2)C[C@H](O)[C@H](Cc2ccccc2)NC(=O)OCc2cncs2)C(C)C)cs1 [RITONAVIR] | Compound metabolized

Test: as §1, with “Z-010” for “Z-001”, “to” for “to mouse gut”, “ERS12561810” for “ERS12561801”
Conditions: 2 µM

Structure (SMILES) | Bacterial Biotransformation
CC(O)(CS(=O)(=O)c1ccc(F)cc1)C(=O)Nc1ccc(C#N)c(C(F)(F)F)c1 (stereo not given) [BICALUTAMIDE] | Compound NOT metabolized
CC(C)c1nc(CN(C)C(=O)N[C@H](C(=O)N[C@@H](Cc2ccccc2)C[C@H](O)[C@H](Cc2ccccc2)NC(=O)OCc2cncs2)C(C)C)cs1 [RITONAVIR] | Compound metabolized

Test: as §1, with “Z-026” for “Z-001”, “to” for “to mouse gut”, “ERS12561825” for “ERS12561801”
Conditions: 2 µM

Structure (SMILES) | Bacterial Biotransformation
CC(O)(CS(=O)(=O)c1ccc(F)cc1)C(=O)Nc1ccc(C#N)c(C(F)(F)F)c1 (stereo not given) [BICALUTAMIDE] | Compound NOT metabolized
CC(C)c1nc(CN(C)C(=O)N[C@H](C(=O)N[C@@H](Cc2ccccc2)C[C@H](O)[C@H](Cc2ccccc2)NC(=O)OCc2cncs2)C(C)C)cs1 [RITONAVIR] | Compound metabolized

Test: as §1, with “WLS-370” for “Z-001”, “human” for “mouse”, “ERS12561793” for “ERS12561801”
Conditions: 2 µM

Structure (SMILES) | Bacterial Biotransformation
CC(O)(CS(=O)(=O)c1ccc(F)cc1)C(=O)Nc1ccc(C#N)c(C(F)(F)F)c1 (stereo not given) [BICALUTAMIDE] | Compound NOT metabolized
CC(C)c1nc(CN(C)C(=O)N[C@H](C(=O)N[C@@H](Cc2ccccc2)C[C@H](O)[C@H](Cc2ccccc2)NC(=O)OCc2cncs2)C(C)C)cs1 [RITONAVIR] | Compound metabolized

Conditions: human gut metagenome, 24 h, 2 µM
Remark: another data set of the same source

Structure (SMILES) | Bacterial Biotransformation
CC(O)(CS(=O)(=O)c1ccc(F)cc1)C(=O)Nc1ccc(C#N)c(C(F)(F)F)c1 (stereo not given) [BICALUTAMIDE] | Compound NOT metabolized
CC(C)c1nc(CN(C)C(=O)N[C@H](C(=O)N[C@@H](Cc2ccccc2)C[C@H](O)[C@H](Cc2ccccc2)NC(=O)OCc2cncs2)C(C)C)cs1 [RITONAVIR] | Compound metabolized

Test: as §1, with “Z-020” for “Z-001”, “rabbit” for “mouse”, “ERS12561819” for “ERS12561801”
Conditions: 2 µM

Structure (SMILES) | Bacterial Biotransformation
CC(O)(CS(=O)(=O)c1ccc(F)cc1)C(=O)Nc1ccc(C#N)c(C(F)(F)F)c1 (stereo not given) [BICALUTAMIDE] | Compound NOT metabolized
CC(C)c1nc(CN(C)C(=O)N[C@H](C(=O)N[C@@H](Cc2ccccc2)C[C@H](O)[C@H](Cc2ccccc2)NC(=O)OCc2cncs2)C(C)C)cs1 [RITONAVIR] | Compound metabolized

Conditions: human gut metagenome, 24 h, 2 µM
Remark: another data set of the same source

Structure (SMILES) | Bacterial Biotransformation
CC(O)(CS(=O)(=O)c1ccc(F)cc1)C(=O)Nc1ccc(C#N)c(C(F)(F)F)c1 (stereo not given) [BICALUTAMIDE] | Compound NOT metabolized
CC(C)c1nc(CN(C)C(=O)N[C@H](C(=O)N[C@@H](Cc2ccccc2)C[C@H](O)[C@H](Cc2ccccc2)NC(=O)OCc2cncs2)C(C)C)cs1 [RITONAVIR] | Compound metabolized

Test: as §1, with “WLS-090” for “Z-001”, “human” for “mouse”, “ERS12561753” for “ERS12561801”
Conditions: 2 µM

Structure (SMILES) | Bacterial Biotransformation
CC(O)(CS(=O)(=O)c1ccc(F)cc1)C(=O)Nc1ccc(C#N)c(C(F)(F)F)c1 (stereo not given) [BICALUTAMIDE] | Compound NOT metabolized
CC(C)c1nc(CN(C)C(=O)N[C@H](C(=O)N[C@@H](Cc2ccccc2)C[C@H](O)[C@H](Cc2ccccc2)NC(=O)OCc2cncs2)C(C)C)cs1 [RITONAVIR] | Compound metabolized

Conditions: human gut metagenome, 24 h, 2 µM
Remark: another data set of the same source

Structure (SMILES) | Bacterial Biotransformation
CC(O)(CS(=O)(=O)c1ccc(F)cc1)C(=O)Nc1ccc(C#N)c(C(F)(F)F)c1 (stereo not given) [BICALUTAMIDE] | Compound NOT metabolized
CC(C)c1nc(CN(C)C(=O)N[C@H](C(=O)N[C@@H](Cc2ccccc2)C[C@H](O)[C@H](Cc2ccccc2)NC(=O)OCc2cncs2)C(C)C)cs1 [RITONAVIR] | Compound metabolized

Conditions: human gut metagenome, 24 h, 2 µM
Remark: another data set of the same source

Structure (SMILES) | Bacterial Biotransformation
CC(O)(CS(=O)(=O)c1ccc(F)cc1)C(=O)Nc1ccc(C#N)c(C(F)(F)F)c1 (stereo not given) [BICALUTAMIDE] | Compound NOT metabolized
CC(C)c1nc(CN(C)C(=O)N[C@H](C(=O)N[C@@H](Cc2ccccc2)C[C@H](O)[C@H](Cc2ccccc2)NC(=O)OCc2cncs2)C(C)C)cs1 [RITONAVIR] | Compound NOT metabolized

Test: as §1, with “Z-002” for “Z-001”, “rabbit” for “mouse”, “ERS12561802” for “ERS12561801”
Conditions: 2 µM

Structure (SMILES) | Bacterial Biotransformation
CC(O)(CS(=O)(=O)c1ccc(F)cc1)C(=O)Nc1ccc(C#N)c(C(F)(F)F)c1 (stereo not given) [BICALUTAMIDE] | Compound NOT metabolized
CC(C)c1nc(CN(C)C(=O)N[C@H](C(=O)N[C@@H](Cc2ccccc2)C[C@H](O)[C@H](Cc2ccccc2)NC(=O)OCc2cncs2)C(C)C)cs1 [RITONAVIR] | Compound metabolized

Test: as §1, with “Z-027” for “Z-001”, “to” for “to mouse gut”, “ERS12561826” for “ERS12561801”
Conditions: 2 µM

Structure (SMILES) | Bacterial Biotransformation
CC(O)(CS(=O)(=O)c1ccc(F)cc1)C(=O)Nc1ccc(C#N)c(C(F)(F)F)c1 (stereo not given) [BICALUTAMIDE] | Compound NOT metabolized
CC(C)c1nc(CN(C)C(=O)N[C@H](C(=O)N[C@@H](Cc2ccccc2)C[C@H](O)[C@H](Cc2ccccc2)NC(=O)OCc2cncs2)C(C)C)cs1 [RITONAVIR] | Compound metabolized

Conditions: human gut metagenome, 24 h, 2 µM
Remark: another data set of the same source

Structure (SMILES) | Bacterial Biotransformation
CC(O)(CS(=O)(=O)c1ccc(F)cc1)C(=O)Nc1ccc(C#N)c(C(F)(F)F)c1 (stereo not given) [BICALUTAMIDE] | Compound NOT metabolized
CC(C)c1nc(CN(C)C(=O)N[C@H](C(=O)N[C@@H](Cc2ccccc2)C[C@H](O)[C@H](Cc2ccccc2)NC(=O)OCc2cncs2)C(C)C)cs1 [RITONAVIR] | Compound NOT metabolized

Conditions: human gut metagenome, 24 h, 2 µM
Remark: another data set of the same source

Structure (SMILES) | Bacterial Biotransformation
CC(O)(CS(=O)(=O)c1ccc(F)cc1)C(=O)Nc1ccc(C#N)c(C(F)(F)F)c1 (stereo not given) [BICALUTAMIDE] | Compound NOT metabolized
CC(C)c1nc(CN(C)C(=O)N[C@H](C(=O)N[C@@H](Cc2ccccc2)C[C@H](O)[C@H](Cc2ccccc2)NC(=O)OCc2cncs2)C(C)C)cs1 [RITONAVIR] | Compound metabolized

Test: as §1, with “WLS-170” for “Z-001”, “human” for “mouse”, “ERS12561762” for “ERS12561801”
Conditions: 2 µM

Structure (SMILES) | Bacterial Biotransformation
CC(O)(CS(=O)(=O)c1ccc(F)cc1)C(=O)Nc1ccc(C#N)c(C(F)(F)F)c1 (stereo not given) [BICALUTAMIDE] | Compound NOT metabolized
CC(C)c1nc(CN(C)C(=O)N[C@H](C(=O)N[C@@H](Cc2ccccc2)C[C@H](O)[C@H](Cc2ccccc2)NC(=O)OCc2cncs2)C(C)C)cs1 [RITONAVIR] | Compound metabolized
